Data from article PMC8102702, “Azithromycin Exhibits Activity Against Pseudomonas aeruginosa in Chronic Rat Lung Infection Model” (Frontiers in Microbiology, 2021).
Converted amounts (≈) assume the structure as drawn. Like-named read-outs stand apart in the source and are kept apart here.

How the values were obtained:
[1] = system: pelA promoter-lacZ in recombinant P. aeruginosa G2; test: β-galactosidase activity of pel promoter-lacZ transcriptional fusion; format: cell-based, Pseudomonas aeruginosa
Description: To understand the molecular mechanism of biofilm inhibition, a recombinant mutant P. aeruginosa G2-containing promoterless lacZ gene under promoter control of pelA was gifted to us by Prof. Kilter ([Sakuragi and Kolter, 2007]). The β-galactosidase activity was performed in the absence and presence of different concentrations of azithromycin and levofloxacin, as described earlier ([Sakuragi and Kolter, 2007]).

[2] = system: P. aeruginosa G2; test: MIC; format: cell-based; settings: Pseudomonas aeruginosa
[3] = system: P. aeruginosa PAO1 biofilm; test: In vitro biofilm formation inhibition, crystal violet, 96-well plate; format: cell-based; settings: Pseudomonas aeruginosa; P. aeruginosa PAO1, 24 h exposure, LB broth with 0.2% glucose; read-out: biofilm preventive concentration (BPC50)
Description: The effect of azithromycin and clindamycin on P. aeruginosa biofilm formation was assessed as described previously ([Sharma et al., 2009]; [Barman et al., 2016]; [Kumar et al., 2019]). Briefly, the overnight-grown culture of P. aeruginosa PAO1 in TSB was pelleted and resuspended in Luria-Bertani broth containing 0.2% glucose (10^7 CFU/ml). The bacterial suspension was spiked with different concentrations (16-0.015 μg/ml) of azithromycin or clindamycin in 96-well plates and incubated at 26 ± 2°C. The effects of azithromycin and clindamycin on inhibition of biofilm formation were assayed after 24 h of exposure. The wells were emptied and washed three times with phosphate-buffered saline (PBS; pH 7.3), and the adherent biofilm was stained with 200 μl of 1% crystal violet for 30 min and rinsed with distilled water. The adherent biofilm in the wells was solubilized with 200 μl of 30% acetic acid, and the optical density at 600 nm (OD600) was measured to quantify the formed biofilms. Each experiment was performed thrice, and the mean percent inhibition and standard deviations were calculated. The relative inhibition of biofilms, expressed as a mean percentage, was determined using the following formula: Percentinhibition=100-{([…]-controlwell)×100}

[4] = system: pre-formed biofilm of P. aeruginosa PAO1; test: Activity on pre-formed biofilm (eradication), crystal violet; format: cell-based; settings: Pseudomonas aeruginosa; pre-formed 24 h biofilm of P. aeruginosa PAO1, 24 h exposure; read-out: minimum biofilm eradication concentration (MBEC50)
Description: The efficacy of azithromycin was also evaluated on a pre-formed biofilm of P. aeruginosa PAO1 to assess the therapeutic or eradicative effect of azithromycin as described earlier ([Macia et al., 2014]). The bacterial suspension was prepared as described above and inoculated at 200 μl/well in a 96-well plate. After 24 h of incubation, the wells were emptied and washed with PBS and then spiked with different concentrations (16–0.015 μg/ml) of azithromycin prepared in LB broth containing 0.2% glucose. The plate was further incubated for 24 h, and the effect of azithromycin was assessed as described above.

[5] = system: P. aeruginosa PA-14 planktonic cells; test: Time-kill kinetic study, planktonic cells; format: cell-based, Pseudomonas aeruginosa; settings: P. aeruginosa PA-14, LB media
Description: (§1) To further evaluate the effect of azithromycin on planktonic cells and biofilm formation, a time-kill kinetic study was performed. Briefly, 10 ml of LB broth containing 0.2% glucose and a sterile 2-cm-long piece of the catheter were pre-warmed at 26 ± 2°C in reaction tubes, and the different concentrations of azithromycin (2 or 16 μg/ml) were added to tubes. The bacterial inoculum of P. aeruginosa PA-14 was prepared as described above and added to the tubes to achieve a final inoculum of ∼1 × 10^5 CFU/ml. The tubes were incubated at 26 ± 2°C. The planktonic cell counts were determined at various time-points by serial dilution plating onto a trypticase soy agar plate. After 24 h of incubation, the catheter pieces from each tube were removed, non-adherent bacteria were washed from the catheter pieces, and the number of CFU embedded in biofilm per catheter was determined as described earlier ([Kumar et al., 2016], [2019]). The experiment was performed in triplicate, and the mean log10 killing of planktonic cells and biofilm inhibition were calculated for each concentration. To further assess biofilm formation in the absence (drug-free control) or presence of azithromycin, the catheter pieces were also sectioned and processed for scanning electron microscopy (SEM).

[6] = system: P. aeruginosa PA-14 biofilm; test: Solid-surface biofilm formation on catheter piece (CFU, SEM); format: cell-based, Pseudomonas aeruginosa; settings: P. aeruginosa PA-14, 24 h, azithromycin 2 or 16 μg/ml
Description: as §1

[7] = system: P. aeruginosa PA-14; test: Chronic rat lung (biofilm) infection model, lung bacterial load; format: in vivo, Sprague-Dawley rats; settings: 75 mg/kg PO, q24h for 4 days, started 3 days post-infection; lungs 22 h after last dose
From the text: Specific pathogen-free female Sprague–Dawley (SD) rats, weighing 200 ± 20 g (age 8 weeks), were used for the study. The rats were procured from Vivo Biotech Pvt. Ltd., Hyderabad, India. The animals were housed in a pathogen-free animal facility and allowed 5 days of acclimatization in the study room before initiating the experiment. Feed and water were provided ad libitum during acclimatization and the study periods. All animal studies were approved by the institutional animal ethics committee. The animal studies were conducted under the strict guidelines of the committee for the Purpose of Control and Supervision of Experiments on Animals, Ministry of Environment, Forests and Climate Change, New Delhi, Government of India, and under the supervision of the institutional committee.
To determine the in vivo efficacy of azithromycin, a chronic biofilm model of P. aeruginosa was established in SD rats, which mimic the human chronic infection ([Hoover et al., 2017]; [Chawanpaiboon et al., 2019]). A semisolid 0.25% w/v agar beads suspension was prepared and autoclaved a day before the in vivo experiment and stored overnight at 4°C. […] The rats were then euthanized 22 h after the last dose, and the lungs’ bacterial load was determined by plating diluted lung homogenates on MHA.

[8] = Pharmacokinetics in plasma and lung ELF of P. aeruginosa-infected rats; settings: rat, in vivo, po, 75 mg/kg; for Kp: Sprague-Dawley, 75 mg/kg PO, infected rats
Description: The concentrations of azithromycin were assessed in the plasma and lung epithelial lining fluid (ELF) of the rats infected with P. aeruginosa PA-14. Intratracheal infection in rats was performed as described above. A single dose of 75 mg/kg of azithromycin was administered orally through gavage. Blood and broncho-alveolar lavage (BAL) fluid (with 2 ml of normal saline wash) were collected at different time-points up to 24 h post-dose from each animal by gross dissection. For the collection of BAL, 2 ml of sterile cold PBS was infused into the animal through the trachea and into the bronchial cavity and aspirated out. Plasma was harvested from blood samples by centrifugation. The azithromycin concentrations in plasma and BAL samples were determined using liquid chromatography with tandem mass spectrometry. The apparent volume of ELF (VELF) in BAL fluid was determined by the urea dilution method using the urea assay kit from BioChain (Hayward, CA). The concentration of azithromycin in ELF (CELF) was determined as
where CBAL is the measured concentration of azithromycin in BAL fluid.

[9] = system: QS molecule (3-O-C12 HSL) of P. aeruginosa; test: QS molecule in epithelial lining fluid of infected rats; format: in vivo; settings: azithromycin treated rats vs placebo control, 7 days post-infection

SMILES	effect on β-galactosidase activity ([1]; P. aeruginosa G2, sub-MIC concentrations)	MIC [2]	IC50 [3]	IC50 [4]	reduction in planktonic cell counts as compared to the drug-free control ([5]; 6 h)	effect on planktonic cell counts ([5]; 24 h post-incubation)	solid-surface biofilm formation on catheter pieces [6]	IC50 ([1]; Pseudomonas aeruginosa, read-out: inhibition of β-galactosidase activity, IC50)	reduction in bacterial counts as compared to the placebo control [7]	Kp ([8]; read-out: lung ELF/plasma ratio of AUCinf)	Kp ([8]; read-out: lung ELF/plasma ratio of Cmax)	Cmax [8]	Tmax [8]	level of QS molecules in the ELF [9]
C[C@H]1COc2c(N3CCN(C)CC3)c(F)cc3c(=O)c(C(=O)O)cn1c23 [levofloxacin]	did not influence	0.001 µg/mL (≈ 0.00277 µM)	–	–	–	–	–	–	–	–	–	–	–	–
CC[C@H]1OC(=O)[C@H](C)[C@@H](O[C@H]2C[C@@](C)(OC)[C@@H](O)[C@H](C)O2)[C@H](C)[C@@H](O[C@@H]2O[C@H](C)C[C@H](N(C)C)[C@H]2O)[C@](C)(O)C[C@@H](C)CN(C)[C@H](C)[C@@H](O)[C@]1(C)O [azithromycin]	–	> 0.032 µg/mL	0.122 µg/mL (≈ 0.163 µM)	7.49 µg/mL (≈ 10 µM)	1.86 log10	no effect	no solid-surface biofilm formed	0.17 µg/mL (≈ 0.227 µM)	1.67 log10	86	81	950 ± 300 ng/mL	2 h	comparatively reduced level
